“Also recorded” adds a separate entry of the source. Square brackets hold non-standard residues; d marks the D form. Ends that are not written are not given here. Lys(N3) = [N-]=[N+]=NCCCC[C@H](N)C(=O)O
test system: amino acid at a terminal position of a polypeptide; experiment: not given; settings: Table 2; amino acid identity at a terminal position (phosphotyrosine also internal); inferred from literature and/or demonstrated by the inventors; cited from earlier work

Substance | Binding Pref.
H. sapiens Src tyrosine kinase SH2 domain: SEQ ID NO: 118 | phospho-Y
H. sapiens p62 fragment 1-180: SEQ ID NO: 121 | K, R, H,; also recorded: W, F, Y
H. sapiens p62 fragment 1-310: SEQ ID NO: 120 | K, R, H,; also recorded: W, F, Y
H. sapiens p62 fragment 126-180: SEQ ID NO: 122 | K, R, H,; also recorded: W, F, Y
Rattus norvegicus p62 protein: SEQ ID NO: 124 | K, R, H,; also recorded: W, F, Y

test system: proline iminopeptidase (PIP); experiment: Terminal amino acid cleavage of peptide-linker conjugates by PIP (LCMS); assay type: biochemical; settings: monitored by LCMS
Description: (§1) The peptide-linker conjugates were evaluated for amino acid cleavage at peptide N-termini by N-terminal aminopeptidases (Table 6, below).
(§2) The peptide-linker conjugates shown in Table 6 were incubated with either proline iminopeptidase (“PIP”) or rat aminopeptidase N (“Rat APN”), and peptide cleavage was monitored by LCMS. All other cleavage reactions were measured in a similar manner.

Cleaved by PIP | Substance
Yes | 8: peptide-linker conjugate: FPFPFP{LYS(N3)} (SEQ ID NO. 230), oligo linker (FPFPFP[Lys(N3)]; also: oligo linker, attachment not given here) [Entry 8]
Yes | 9: peptide-linker conjugate: DPDPDP{LYS(N3)} (SEQ ID NO. 231), oligo linker (DPDPDP[Lys(N3)]; also: oligo linker, attachment not given here) [Entry 9]
No | 10: peptide-linker conjugate: KPKPKP{LYS(N3)} (SEQ ID NO. 232), oligo linker (KPKPKP[Lys(N3)]; also: oligo linker, attachment not given here) [Entry 10]
Yes | 11: peptide-linker conjugate: KPKPKP{LYS(N3)} (SEQ ID NO. 233), PEG4 linker (KPKPKP[Lys(N3)]; also: PEG4 linker, attachment not given here) [Entry 11]

target: T1, rat aminopeptidase N (Rat APN) (Rattus norvegicus, UniProt P15684); experiment: Terminal amino acid cleavage of peptide-linker conjugates by Rat APN (LCMS); assay type: biochemical; settings: monitored by LCMS
T1 sequence (P15684 1-965): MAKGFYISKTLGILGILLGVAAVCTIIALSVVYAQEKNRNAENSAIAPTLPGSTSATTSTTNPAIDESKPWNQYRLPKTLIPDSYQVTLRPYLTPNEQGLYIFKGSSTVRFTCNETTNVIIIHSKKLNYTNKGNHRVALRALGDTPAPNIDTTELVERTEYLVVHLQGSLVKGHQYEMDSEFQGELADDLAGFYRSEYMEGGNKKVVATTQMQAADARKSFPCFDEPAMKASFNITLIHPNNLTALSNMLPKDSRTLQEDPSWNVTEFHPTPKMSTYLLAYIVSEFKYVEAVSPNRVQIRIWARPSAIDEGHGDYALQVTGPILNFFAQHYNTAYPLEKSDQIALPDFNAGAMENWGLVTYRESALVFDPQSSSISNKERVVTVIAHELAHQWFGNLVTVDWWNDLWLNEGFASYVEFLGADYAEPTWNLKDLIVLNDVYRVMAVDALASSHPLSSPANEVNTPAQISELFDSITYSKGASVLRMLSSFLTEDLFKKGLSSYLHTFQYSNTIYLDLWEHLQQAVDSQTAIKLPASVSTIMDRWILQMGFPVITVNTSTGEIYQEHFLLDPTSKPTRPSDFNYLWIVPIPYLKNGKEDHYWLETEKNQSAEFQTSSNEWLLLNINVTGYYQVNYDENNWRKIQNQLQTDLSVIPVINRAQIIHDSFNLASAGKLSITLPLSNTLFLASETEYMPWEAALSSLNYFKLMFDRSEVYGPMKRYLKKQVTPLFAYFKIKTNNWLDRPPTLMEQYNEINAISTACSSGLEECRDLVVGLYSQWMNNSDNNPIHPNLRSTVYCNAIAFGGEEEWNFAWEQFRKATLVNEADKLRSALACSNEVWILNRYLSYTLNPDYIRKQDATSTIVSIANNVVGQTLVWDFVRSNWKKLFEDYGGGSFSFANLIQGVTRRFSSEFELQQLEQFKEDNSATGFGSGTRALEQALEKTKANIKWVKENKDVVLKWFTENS
Description: as §1, §2

Cleaved by Rat APN | Substance
No | 2: peptide-linker conjugate: KKMKKM{LYS(N3)} (SEQ ID NO. 224), oligo linker (KKMKKM[Lys(N3)]; also: oligo linker, attachment not given here) [Entry 2]
No | 3: peptide-linker conjugate: KKMKKM{LYS(N3)} (SEQ ID NO. 225), oligo-PEG linker (KKMKKM[Lys(N3)]; also: oligo-PEG linker, attachment not given here) [Entry 3]
Yes | 4: peptide-linker conjugate: KKMKKM{LYS(N3)} (SEQ ID NO. 226), PEG4 linker (KKMKKM[Lys(N3)]; also: PEG4 linker, attachment not given here) [Entry 4]
Yes | 6: peptide-linker conjugate: FFMFFM{LYS(N3)} (SEQ ID NO. 228), oligo linker (FFMFFM[Lys(N3)]; also: oligo linker, attachment not given here) [Entry 6]
Yes | 7: peptide-linker conjugate: AAMAAM{LYS(N3)} (SEQ ID NO. 229), oligo linker (AAMAAM[Lys(N3)]; also: oligo linker, attachment not given here) [Entry 7]
Yes | Entry 5: peptide-linker conjugate: DDMDDM{LYS(N3)} (SEQ ID NO. 227), oligo linker (DDMDDM[Lys(N3)]; also: oligo linker, attachment not given here)

Source: patent publication US12065466B2, “Methods and compositions for protein sequencing” (Quantum-Si Incorporated, priority 2020, dated 2024)
